{"source": "patent US20260356957A1", "about": "“METHODS FOR TREATMENT OF NON-SMALL CELL LUNG CANCER (NSCLC)” (Janssen Biotech, Inc., priority 2023, published 2026)", "key": {"[1]": {"tested_on": "EGFR-mutated locally advanced or metastatic NSCLC", "assay": "MARIPOSA Phase 3, progression-free survival by BICR", "assay_type": "in vivo, human", "description": "The primary endpoint of the study is PFS (using RECIST v1.1 guidelines) as assessed by blinded independent central review (BICR)."}, "[2]": {"tested_on": "EGFR-mutated locally advanced or metastatic NSCLC", "assay": "MARIPOSA Phase 3, overall survival", "assay_type": "in vivo, human"}, "[3]": {"tested_on": "EGFR-mutated locally advanced or metastatic NSCLC", "assay": "MARIPOSA Phase 3, objective response by BICR (RECIST v1.1)", "assay_type": "in vivo, human", "conditions": "best overall response"}, "[4]": {"tested_on": "EGFR-mutated locally advanced or metastatic NSCLC", "assay": "MARIPOSA Phase 3, duration of response by BICR", "assay_type": "in vivo, human", "conditions": "confirmed responders"}, "[5]": {"tested_on": "EGFR-mutated locally advanced or metastatic NSCLC", "assay": "MARIPOSA Phase 3, progression-free survival after first subsequent therapy (PFS2)", "assay_type": "in vivo, human", "description": "The efficacy population included all patients who had undergone randomization. Tick marks indicate censoring of data. […]"}, "[6]": {"tested_on": "EGFR-mutated locally advanced or metastatic NSCLC", "assay": "MARIPOSA Phase 3, time to symptomatic progression (TTSP)", "assay_type": "in vivo, human"}, "[7]": {"tested_on": "EGFR-mutated locally advanced or metastatic NSCLC", "assay": "MARIPOSA Phase 3, time to subsequent therapy (TTST) and subsequent therapy", "assay_type": "in vivo, human"}, "[8]": {"tested_on": "EGFR-mutated NSCLC with brain metastasis", "assay": "MARIPOSA Phase 3, intracranial PFS by BICR in participants with history of brain metastasis", "assay_type": "in vivo, human", "description": "• 1. […] Intracranial PFS [Time Frame: Up to approximately 42 months]. […] Incidence and Severity of Adverse Events (AEs) [Time Frame: Up to approximately 60 months]. Incidence and severity of treatment emergent adverse events (TEAEs) will be reported. Any adverse event occurring at or after the initial administration of study treatment through the day of last dose plus 30 days, or until the start of subsequent anticancer therapy (if earlier), is considered to be treatment emergent. • 8. Number of Participants with Clinical Laboratory Abnormalities [Time Frame: Up to approximately 60 months]. Number of participants with clinical laboratory abnormalities (serum chemistry, hematology, blood coagulation, and urine samples) will be reported. • 9. Number of Participants with Vital Signs Abnormalities [Time Frame: Up to approximately 60 months]. Number of participants with vital signs abnormalities (temperature, heart rate, respiratory rate, oxygen saturation, blood pressure) will be reported. • 10. Number of Participants with Physical Examination Abnormalities [Time Frame: Up to approximately 60 months]. Number of participants with physical examination abnormalities will be reported. • 11. […] Number of Participants with Anti-Amivantamab Antibodies [Time Frame: Up to approximately 42 months]. […] Change from Baseline in Non-Small Cell Lung Cancer-Symptom Assessment Questionnaire (NCSLC-SAQ) [Time Frame: Baseline Up to approximately 42 months]. The NSCLC-SAQ contains 7 items that assess cough, pain, dyspnea, fatigue, and poor appetite over a 7-day recall period. Each multi-item scale and individual item will be summarized using count and percent by visit. • 15. Change from Baseline in European Organization of Research and Treatment of Cancer Quality of Life Questionnaire Core 30 (EORTC-QLQ-C30) [Time Frame: Baseline Up to approximately 42 months]. EORTC-QLQ-C30 is a core 30-item questionnaire for evaluating the health-related quality of life (HRQOL) of participants participating in cancer clinical studies. • 16."}, "[9]": {"assay": "MARIPOSA Phase 3, adverse events", "assay_type": "in vivo, human", "conditions": "in vivo", "description": "• 1. […] Incidence and Severity of Adverse Events (AEs) [Time Frame: Up to approximately 60 months]. Incidence and severity of treatment emergent adverse events (TEAEs) will be reported. Any adverse event occurring at or after the initial administration of study treatment through the day of last dose plus 30 days, or until the start of subsequent anticancer therapy (if earlier), is considered to be treatment emergent. • 8. Number of Participants with Clinical Laboratory Abnormalities [Time Frame: Up to approximately 60 months]. Number of participants with clinical laboratory abnormalities (serum chemistry, hematology, blood coagulation, and urine samples) will be reported. • 9. Number of Participants with Vital Signs Abnormalities [Time Frame: Up to approximately 60 months]. Number of participants with vital signs abnormalities (temperature, heart rate, respiratory rate, oxygen saturation, blood pressure) will be reported. • 10. Number of Participants with Physical Examination Abnormalities [Time Frame: Up to approximately 60 months]. Number of participants with physical examination abnormalities will be reported. • 11. […] The NSCLC-SAQ contains 7 items that assess cough, pain, dyspnea, fatigue, and poor appetite over a 7-day recall period. Each multi-item scale and individual item will be summarized using count and percent by visit. • 15. […] EORTC-QLQ-C30 is a core 30-item questionnaire for evaluating the health-related quality of life (HRQOL) of participants participating in cancer clinical studies. • 16."}, "EGFR-mutated NSCLC": {"tested_on": "EGFR-mutated NSCLC", "conditions": "all prespecified subgroups; cited from earlier work"}}, "data": [{"compound": "C=CC(=O)Nc1cc(Nc2nccc(-n3cc(CN(C)C)c(-c4ccccc4)n3)n2)c(OC)cc1N1CCOCC1", "note": "[Lazertinib, N-(5-(4-(4-((dimethylamino)methyl)-3-phenyl-1H-pyrazol-1-yl)pyrimidin-2-ylamino)-4-methoxy-2-morpholinophenyl) acrylamide]", "values": [{"measurement": "PFS 6-month event-free rate (95% CI)", "setting": "[1]", "value": "0.85 (0.79, 0.89)"}, {"measurement": "PFS 18-month event-free rate (95% CI)", "setting": "[1]", "value": "0.52 (0.44, 0.58)"}, {"measurement": "PFS 24-month event-free rate (95% CI)", "setting": "[1]", "value": "0.35 (0.27, 0.42)"}, {"measurement": "PFS 30-month event-free rate (95% CI)", "setting": "[1]", "value": "0.30 (0.22, 0.39)"}, {"measurement": "Censored (PFS)", "setting": "[1]; Full Analysis Set", "value": "95 (44.0%) (%)"}, {"measurement": "PFS time to event, 75th percentile (95% CI)", "setting": "[1]; Full Analysis Set", "value": "NE (24.05, NE)"}, {"measurement": "Censored (OS)", "setting": "[2]; Full Analysis Set", "value": "160 (74.1%) (%)"}, {"measurement": "Event (OS)", "setting": "[2]; Full Analysis Set", "value": "56 (25.9%) (%)"}, {"measurement": "OS 12-month event-free rate (95% CI)", "setting": "[2]; Full Analysis Set", "value": "0.86 (0.81, 0.90)"}, {"measurement": "OS 18-month event-free rate (95% CI)", "setting": "[2]; Full Analysis Set", "value": "0.78 (0.71, 0.83)"}, {"measurement": "OS 24-month event-free rate (95% CI)", "setting": "[2]; Full Analysis Set", "value": "0.71 (0.61, 0.78)"}, {"measurement": "OS 30-month event-free rate (95% CI)", "setting": "[2]; Full Analysis Set", "value": "0.68 (0.58, 0.75)"}, {"measurement": "OS time to event, 75th percentile (95% CI)", "setting": "[2]; NE = not estimable", "value": "NE (NE, NE)"}, {"measurement": "Median overall survival (95% CI)", "setting": "[2]; interim analysis, NE = not estimable", "value": "NE (NE, NE)"}, {"measurement": "Complete Response (CR)", "setting": "[3]", "value": "9 (4.2%) (%)"}, {"measurement": "Not Evaluable (NE)", "setting": "[3]", "value": "5 (2.3%) (%)"}, {"measurement": "Progressive Disease (PD)", "setting": "[3]", "value": "9 (4.2%) (%)"}, {"measurement": "Censored (DOR)", "setting": "[4]", "value": "77 (48.1%) (%)"}, {"measurement": "Event (DOR)", "setting": "[4]", "value": "83 (51.9%) (%)"}, {"measurement": "DOR time to event, 75th percentile (95% CI)", "setting": "[4]; NE = not estimable", "value": "NE (NE, NE)"}, {"measurement": "Event (PFS2)", "setting": "[5]; Full Analysis Set", "value": "58 (26.9%) (%)"}, {"measurement": "PFS2 time to event, 75th percentile (95% CI)", "setting": "[5]; NE = not estimable", "value": "NE (28.94, NE)"}, {"measurement": "Death without Symptomatic PD", "setting": "[6]; Full Analysis Set", "value": "24 (11.1%) (%)"}, {"measurement": "Event (TTSP)", "setting": "[6]; Full Analysis Set", "value": "70 (22.4%) (%)"}, {"measurement": "TTSP 6-month event-free rate (95% CI)", "setting": "[6]; Full Analysis Set", "value": "0.90 (0.85, 0.93)"}, {"measurement": "TTSP 12-month event-free rate (95% CI)", "setting": "[6]; Full Analysis Set", "value": "0.79 (0.72, 0.84)"}, {"measurement": "TTSP 18-month event-free rate (95% CI)", "setting": "[6]; Full Analysis Set", "value": "0.71 (0.64, 0.76)"}, {"measurement": "TTSP 24-month event-free rate (95% CI)", "setting": "[6]; Full Analysis Set", "value": "0.65 (0.58, 0.72)"}, {"measurement": "TTSP 30-month event-free rate (95% CI)", "setting": "[6]; Full Analysis Set", "value": "0.61 (0.52, 0.69)"}, {"measurement": "TTSP time to event, 25th percentile (95% CI)", "setting": "[6]; Full Analysis Set", "value": "13.80 (10.41, 18.56) months"}, {"measurement": "TTSP Median (95% CI)", "setting": "[6]; NE = not estimable", "value": "NE (NE, NE)"}, {"measurement": "TTSP time to event, 75th percentile (95% CI)", "setting": "[6]; NE = not estimable", "value": "NE (NE, NE)"}, {"measurement": "TTST 6-month event-free rate (95% CI)", "setting": "[7]; Full Analysis Set", "value": "0.90 (0.85, 0.93)"}, {"measurement": "TTST 12-month event-free rate (95% CI)", "setting": "[7]; Full Analysis Set", "value": "0.71 (0.66, 0.78)"}, {"measurement": "TTST 18-month event-free rate (95% CI)", "setting": "[7]; Full Analysis Set", "value": "0.60 (0.53, 0.66)"}, {"measurement": "TTST 24-month event-free rate (95% CI)", "setting": "[7]; Full Analysis Set", "value": "0.50 (0.43, 0.58)"}, {"measurement": "TTST time to event, 75th percentile (95% CI)", "setting": "[7]; NE = not estimable", "value": "NE (NE , NE)"}, {"measurement": "Event (intracranial PFS)", "setting": "[8]", "value": "37 (43.0%) (%)"}, {"measurement": "Intracranial PFS time to event, 75th percentile (95% CI)", "setting": "[8]; NE = not estimable", "value": "NE (22.67, NE)"}, {"measurement": "Safety profile", "setting": "[9]", "value": "well defined and tolerable, and largely consistent with that seen with other 3rd generation EGFR TKI"}, {"measurement": "PFS vs gefitinib", "setting": "EGFR-mutated NSCLC", "value": "improved PFS compared to the first generation EGFR TKI gefitinib in all prespecified subgroups"}]}, {"compound": "Amivantamab: IgG1 anti-EGFR/c-Met bispecific antibody described in U.S. Pat. No. 9,593,164; SEQ ID NO: 1-20", "values": [{"measurement": "Safety profile", "setting": "[9]", "value": "well defined and tolerable, largely consistent with its on-target activity against the EGFR and MET pathways"}]}]}
